Patent US20070117770A1, “Human ribosomal DNA (rDNA) and ribosomal RNA (rRNA) nucleic acids and uses thereof” (Cylene Pharmaceuticals, Inc., priority 2005, published 2007)
“Also recorded” adds a separate entry of the source.

Key:
[1] = test system: 28S rRNA and 18S rRNA (total RNA from HCT116 cells); experiment: Human rRNA interaction screening assay (agarose gel electrophoresis mobility shift); assay type: binding; conditions: 1 ug total RNA; 10 uM compound or 0.5 ug/mL PI, 15 min, room temperature
Method: RNA was isolated from HCT116 cells (RNeasy kit, QIAGEN) and contacted in vitro with each compound from a library of compounds. In representative assays, 1 ug of total RNA from HCT116 cells was incubated with 0.5 ug/mL of propidium iodide (PI), 10 uM compound A-1 or another compound in the library in a volume of 10 uL for 15 min at room temperature, followed by agarose gel electrophoresis. Fluorescence of the compounds was visualized on each gel. […] Compounds C-1, C-2, C-3, C-4 and C-5 have the following general formula: [drawing 15] [drawing 16]

A549 cells = experiment: Cell localization assay (fluorescence microscope); assay type: cell-based; conditions: 2 uM, one hour or two hours
Method: A cell localization assay was utilized to determine cell localization for compounds that interacted with rRNA. In these studies, A549 cells were plated in borosilicate chamber slides. The cells were treated with 2 uM compound A-1 the next day for one hour or two hours, washed with PBS, fixed for 10 min in 4% paraformaldehyde and observed under a fluorescence microscope (Olympus) in the Ex360 nm/Em548 nm channel at 600× magnification. […] Accordingly, a compound tested in the assay was localized in cell nucleoli.

[2] = target: T1, nucleolin/nucleic acid ligand (Homo sapiens, UniProt P19338); experiment: EMSA, interference with nucleolin/nucleic acid ligand interactions (ligands derived from human ribosomal DNA); assay type: binding
T1 construct: without the N-terminal acidic stretches domain
T1 sequence (P19338 284-710 limits assumed): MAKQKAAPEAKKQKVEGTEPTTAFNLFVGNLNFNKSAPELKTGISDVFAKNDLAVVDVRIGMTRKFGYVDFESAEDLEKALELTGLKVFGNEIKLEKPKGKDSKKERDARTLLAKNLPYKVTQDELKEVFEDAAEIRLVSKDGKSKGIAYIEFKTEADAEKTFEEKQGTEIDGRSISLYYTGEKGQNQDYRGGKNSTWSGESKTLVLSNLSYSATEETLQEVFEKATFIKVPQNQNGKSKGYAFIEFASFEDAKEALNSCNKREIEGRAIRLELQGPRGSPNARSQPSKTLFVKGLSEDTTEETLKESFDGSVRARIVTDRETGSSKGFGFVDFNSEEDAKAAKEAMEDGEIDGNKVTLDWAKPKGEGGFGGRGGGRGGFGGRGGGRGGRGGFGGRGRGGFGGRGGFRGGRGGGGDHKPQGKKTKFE
Method: The following assays assessed effects of compounds on interactions between nucleolin and nucleic acid ligands capable of forming quadruplex (QP) and hairpin (HP) secondary structures. Nucleic acid ligands tested were a cMyc QP DNA having nucleotide sequence 5′-[…]-3′ (SEQ ID NO: 176) and a HP pre-rRNA region to which nucleolin binds, having the sequence 5′-[…]-3′ (SEQ ID NO: 177). In the assays, recombinant nucleolin (˜250 nM), which was fused to maltose binding protein and had the sequence under accession number NM_005381 without the N-terminal acidic stretches domain, was incubated with each of the two ^32P-labeled nucleic acid ligands (10 or 250 nM). Nucleolin and the nucleic acid ligand were incubated in the presence or absence of a test compound of Formula A-1, B-1, C-6 or C-7 in an incubation buffer (12.5 mM Tris, pH 7.6, 60 mM KCl, 1 mM MgCl2, 0.1 mM EDTA, 1 mM DTT, 5% glycerol, 0.1 mg/ml BSA) for 30 minutes at room temperature. Structures for A-1 and B-1 are shown above and structures for C-6 and C-7 are shown hereafter: [drawing 17] The resulting complexes were separated on a 6% DNA retardation gel using 0.5× TBE with 20 mM KCl as a running buffer (i.e., electrophoresis mobility shift assay (EMSA)).
The assay also was conducted using nucleic acid ligands derived from human ribosomal DNA. Sequences of these nucleic acids are shown in the preceding example. […]

rRNA synthesis, HCT-116 = experiment: PCR assay of rRNA synthesis from 45S rDNA (5' ETS probe); assay type: cell-based; conditions: various concentrations; two hour or four hour incubation (FIGS. 4A, 4B)
Method: Assays were conducted to determine the effects of compounds on rRNA synthesis from 45S rDNA. In particular, compound A-1 at various concentrations was incubated with cells and tested for an effect on rRNA synthesis after a two hour or four hour incubation with the compound. Synthesized rRNA was quantified by a polymerase chain reaction (PCR) assay. A primer/probe set was designed using Primer Express software and synthesized by Applied Biosystems. The 5′ ETS Probe utilized had the following sequence (@ its 3′ end): 6FAM-TTG ATC CTG CCA GTA GC-MGBNFQ (SEQ ID NO:227). The primer sequences were as follows:
Mix • 1 ug RNA • 2.5 ul 10× Taq Man buffer • 5.5 ul 25 mM MgCl2 • 5 ul of a mix of dNTP (500 uM each) • 1.2 ul random hexamer primer (2.5 uM stock) • 0.5 ul RNase inhibitor (0.4 units/ul) • 0.6 ul Reverse Transcriptase (1.2 units/ul) • bring to 25 ul total volume with water
Mix • 5 ul Reverse Transcriptase reaction product • 12.5 ul 2×PCR mix • 1 uM forward primer • 1 uM reverse primer • 0.5 uM Taq Man probe • 500 nM Rox • Adjust to 25 ul final volume with water
PCR cycles • 95 degrees C. 1 minute • 40 cycles of • 95 degrees C. 15 seconds • 60 degrees C. 1 minute.
Fluorescence of digested label was detected and quantified. […] The effect of other compounds on rRNA synthesis also were assessed in the assay, and provided in the table hereafter are IC50 values of selected compounds pertaining to rRNA synthesis and cMYC RNA synthesis.

other kinases = experiment: Protein kinase inhibition assays (panel, summary); assay type: biochemical; conditions: 2.5 μM
Method: Certain compounds were tested for activity in protein kinase inhibition assays. All substrates were dissolved and diluted to working stocks in de-ionized water, apart from histone H1 (10× working stock in 20 mM MOPS pH 7.0), PDKtide (10× working stock in 50 mM Tris pH 7.0) ATF2 (which is typically stored at a 20× working stock in 50 mM Tris pH 7.5, 150 mM NaCl, 0.1 mM EGTA, 0.03% Brij-35, 50% glycerol, 1 mM benzamidine, 0.2 mM PMSF and 0.1% R-mercaptoethanol), KKLNRTLSFAEPG (SEQ ID NO:203) and RRRLSFAEPG (SEQ ID NO:204) (50 mM HEPES pH 7.4) and GGEEEEYFELVKKKK (SEQ ID NO:205) (20 mM MOPS pH 7.0). All kinases were pre-diluted to a 10× working concentration prior to addition into the assay. The composition of the dilution buffer for each kinase is detailed below.
The following table denotes percent residual activity of each protein kinase when incubated with compound A-1 or B-1.

inhibition of other kinases (other kinases): 60-80%
Compound: CN1CCCC1CCNC(=O)c1cn2c3c(c(N4CCC(c5cnccn5)C4)c(F)cc3c1=O)Oc1cc3ccccc3cc1-2 (centres unmarked) [Compound A-1]
binding to 28S versus 18S rRNA [1]: bound preferentially to 28S rRNA; also recorded: selective binding to 28S over 18S | cell localization judged by fluorescence intensity (A549 cells): accumulated in the nucleoli, as well as the cytoplasm/perinuclear space | interference with nucleolin/nucleic acid ligand interactions [2]: interfered with nucleolin/nucleic acid ligand interactions | effect on rRNA synthesis (rRNA synthesis, HCT-116): inhibited rRNA synthesis at two hours and four hours
